This passage reports relative viability results from the supplement of paper PMC10307832.

Common to all, as to assay: relative viability (nuclei count vs DMSO), 5 days (fraction); higher = more cells survive
Compound in one test: CS(=O)(=O)c1ccc(-c2cnc(N)c(C(=O)Nc3ccccc3)n2)cc1 [VE-821]
In a few lines:
(§1)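 Lung cancer cell lines were seeded into 1536-well plates, kept overnight at 37 °C and pinned with five library-drug doses (not always all listed) spaced by √10. After 5 days, nuclei were Hoechst-stained, imaged at 4× and counted with MetaXpress. Viability is treated-well nuclei over vehicle-well nuclei, taken as a median across plates. Plates needed control CV below 25% and at least one doubling.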

Compound in another test: CS(=O)(=O)c1ccc(C(=O)Nc2ccc(Cl)c(-c3ccccn3)c2)c(Cl)c1 [Vismodegib]
Summed up:
as §1

Compound in a further test: N#CC[C@H](C1CCCC1)n1cc(-c2ncnc3[nH]ccc23)cn1 [Ruxolitinib]
In a few lines: as §1

Compound in the test “VE-821 + Alpelisib”: CS(=O)(=O)c1ccc(-c2cnc(N)c(C(=O)Nc3ccccc3)n2)cc1 [VE-821] + Cc1nc(NC(=O)N2CCC[C@H]2C(N)=O)sc1-c1ccnc(C(C)(C)C(F)(F)F)c1 [Alpelisib] (partner 2 µM)
Summed up: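 Dosing by pin tool came one day after lung cancer cell lines were seeded in 1536-well plates, using either one drug or a fixed anchor-drug dose plus five library-drug doses (not always all listed) in √10 steps. After 5 days, nuclei were counted on 4× images. Relative viability is treated-well nuclei count divided by vehicle-well nuclei count, and values are medians of duplicate plates.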

Regarding UMC-11, the relative viability turned out to be 1.08 with VE-821 (0.08 µM); 0.915 with VE-821 (0.253 µM); 0.948 with VE-821 (0.8 µM); 1.04 in the test with VE-821 (2.53 µM); 0.531 with VE-821 (8 µM); 0.897 in the test with Vismodegib (0.08 µM). For the same cell line, the relative viability with Vismodegib (0.253 µM) worked out at 0.919; in the test with Vismodegib (0.8 µM) it was 1; with Vismodegib (2.53 µM), 0.947; in the test with Vismodegib (8 µM) it was 0.834; in the test with Ruxolitinib (0.08 µM), 0.954; in the test with Ruxolitinib (0.253 µM), 0.999. For the same cell line, the relative viability with Ruxolitinib (0.8 µM) is 1.1; in the test with Ruxolitinib (2.53 µM), 1.13; with Ruxolitinib (8 µM), 1.04; in the test with VE-821 + Alpelisib (first compound 0.08 µM), 1.23; with VE-821 + Alpelisib (first compound 0.253 µM), 0.946; with VE-821 + Alpelisib (first compound 0.8 µM) it was 1.03. In addition, the relative viability was found to be 0.935 with VE-821 + Alpelisib (first compound 2.53 µM) and 0.437 with VE-821 + Alpelisib (first compound 8 µM).
